Converted amounts (≈) assume the structure as drawn.
Assays:
Assay type in all cases: cell-based
[1] = test system: S. aureus; test: in vitro agar Petri dish dilution test, MIC against S. aureus; conditions: Staphylococcus aureus; S. aureus (Sa)
From the text: (§1) The compounds have antimicrobial utility. In conventional in vitro agar Petri dish dilution tests for determining antimicrobial activity, the compounds of the Examples had minimum inhibitory concentrations (MIC) against the indicated organisms in parts per million (ppm) as follows: […]

[2] = test system: Ceratocystis IPS; test: in vitro agar Petri dish dilution test, MIC against Ceratocystis IPS; conditions: Ceratocystis IPS (CI)
From the text: as §1

[3] = test system: Trichoderm Sp. Madison P42; test: in vitro agar Petri dish dilution test, MIC against Trichoderm Sp. Madison P42; conditions: Trichoderm Sp. Madison P42 (Tr 42)
From the text: as §1

[4] = test system: E. coli; test: in vitro agar Petri dish dilution test, MIC against E. coli; conditions: Escherichia coli; E. coli (Ec)
From the text: as §1

[5] = test system: Pseudomonas Sp. Strain 10; test: in vitro agar Petri dish dilution test, MIC against Pseudomonas Sp. Strain 10; conditions: Pseudomonas Sp. Strain 10 (Ps 10)
From the text: as §1

[6] = test system: C. pelliculosa; test: in vitro agar Petri dish dilution test, MIC against C. pelliculosa; conditions: Hansenula anomala; C. pelliculosa (Cp)
From the text: as §1

[7] = test system: B. subtilis; test: in vitro agar Petri dish dilution test, MIC against B. subtilis; conditions: Bacillus subtilis; B. subtilis (head Be, footnote Bs)
From the text: as §1

[8] = test system: C albicans; test: in vitro agar Petri dish dilution test, MIC against C albicans; conditions: C albicans (Ca)
From the text: as §1

[9] = test system: P. pullulans; test: in vitro agar Petri dish dilution test, MIC against P. pullulans; conditions: P. pullulans (Pp)
From the text: as §1

[10] = test system: A. aerogenes; test: in vitro agar Petri dish dilution test, MIC against A. aerogenes; conditions: Klebsiella aerogenes; A. aerogenes (Aa)
From the text: as §1

[11] = test system: T. mentagrophytes; test: in vitro agar Petri dish dilution test, MIC against T. mentagrophytes; conditions: Trichophyton mentagrophytes; T. mentagrophytes (Tm)
From the text: as §1

[12] = test system: A. niger; test: in vitro agar Petri dish dilution test, MIC against A. niger; conditions: Aspergillus niger; A. niger (An)
From the text: as §1

[13] = test system: S. typhosa; test: in vitro agar Petri dish dilution test, MIC against S. typhosa; conditions: S. typhosa (St)
From the text: as §1

| Compound | MIC [1] [µg/mL] | MIC [2] [µg/mL] | MIC [3] [µg/mL] | MIC [4] [µg/mL] | MIC [5] [µg/mL] | MIC [6] [µg/mL] | MIC [7] [µg/mL] | MIC [8] [µg/mL] | MIC [9] [µg/mL] | MIC [10] [µg/mL] | MIC [11] [µg/mL] | MIC [12] [µg/mL] | MIC [13] [µg/mL] |
| --- | --- | --- | --- | --- | --- | --- | --- | --- | --- | --- | --- | --- | --- |
| N#CC(Cl)CS(=O)(=O)c1cccs1 (stereo not drawn) [Example 1, 3-(2-Thiophenesulfonyl)-2-chloropropane nitrile] | 100 (≈ 424 µM) | 100 (≈ 424 µM) | 100 (≈ 424 µM) | 100 (≈ 424 µM) | 100 (≈ 424 µM) | 10 (≈ 42.4 µM) | 100 (≈ 424 µM) | 10 (≈ 42.4 µM) | 10 (≈ 42.4 µM) | 100 (≈ 424 µM) | 10 (≈ 42.4 µM) | 100 (≈ 424 µM) | – |
| CCCCc1ccc(S(=O)(=O)CC(Cl)C#N)s1 (stereo not drawn) [2(c)] | 5 (≈ 17.1 µM) | 50 (≈ 171 µM) | 500 (≈ 1710 µM) | 500 (≈ 1710 µM) | 500 (≈ 1710 µM) | 50 (≈ 171 µM) | 5 (≈ 17.1 µM) | 50 (≈ 171 µM) | 50 (≈ 171 µM) | 500 (≈ 1710 µM) | 50 (≈ 171 µM) | 500 (≈ 1710 µM) | – |
| CCc1ccc(S(=O)(=O)CC(Cl)C#N)s1 (stereo not drawn) [2(b)] | 5 (≈ 19 µM) | 100 (≈ 379 µM) | 500 (≈ 1900 µM) | 50 (≈ 190 µM) | 500 (≈ 1900 µM) | 100 (≈ 379 µM) | 5 (≈ 19 µM) | 500 (≈ 1900 µM) | 500 (≈ 1900 µM) | 100 (≈ 379 µM) | 50 (≈ 190 µM) | 500 (≈ 1900 µM) | 5 (≈ 19 µM) |
| Cc1ccc(S(=O)(=O)CC(Cl)C#N)s1 (stereo not drawn) [2(a)] | 50 (≈ 200 µM) | 50 (≈ 200 µM) | 50 (≈ 200 µM) | – | 500 (≈ 2000 µM) | 50 (≈ 200 µM) | 10 (≈ 40 µM) | 50 (≈ 200 µM) | 50 (≈ 200 µM) | 50 (≈ 200 µM) | 50 (≈ 200 µM) | 50 (≈ 200 µM) | – |
